Holding throughout (test): NCI-60 cell line screen, 48 h
Assay [1] concerns PC-3 prostate.
Assay [2] relates to A498 renal.
The test system of assay [3] is UACC-62 melanoma.
Assay [4] concerns BT-549 breast.
The test system of assay [5] is SW-620 colon.
In assay [6] the test system is K-562 leukemia.
For assay [7], the system named is HS 578T breast.
The subject of assay [8] is OVCAR-8 ovarian.
The subject of assay [9] is NCI-H522 lung.
Assay [10] relates to HCT-116 colon.

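Test compounds were applied to cells in 96-well plates for 48 hours at 5 doses. Abbreviation: GI50, concentration required for 50% inhibition of growth. TGI: total growth inhibition.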

With `O=C(N/N=C\c1ccc(N(CCCl)CCCl)cc1)c1cccnc1`, the GI50 in assay [1] was 65.4 µM; in assay [2] it was 42.2 µM; in assay [3], 9.1 µM; in assay [4], 19.7 µM; in assay [5], more than 100 µM; in assay [6], 32.2 µM. Besides, the GI50 in assay [7] was 65.5 µM; in assay [8], 39.8 µM; in assay [9], 29 µM; in assay [10], 51 µM. Moreover, the TGI in assay [1], in [2], in assay [3], in assay [4], in assay [5] and in assay [6] was more than 100 µM in each case. Besides, the TGI in assay [7], in [8], in assay [9] and in assay [10] was more than 100 µM each time.
Consider `N/C(=C\c1ccc(/C=C(\NC(=O)c2ccccc2)c2nc3c([nH]2)C(=O)c2ccccc2C3=O)cc1)c1nc2c([nH]1)C(=O)c1ccccc1C2=O`, for which the TGI amounted to 29.9 µM in assay [2]; 27.8 µM in [3]; 50.5 µM in [5]; 43.5 µM in assay [6]; 61.8 µM in [8]; 29.8 µM in [9]. In addition, the TGI in assay [10] is 29.5 µM.
Consider `CN(CCO)CCC1COc2ccccc2O1` (stereo not drawn), for which the TGI in assay [1], in [2], in [3], in [5], in assay [6] and in assay [7] was more than 10 µM each time. Moreover, the TGI in assay [8], in [9] and in [10] was more than 10 µM each time.
As for `N#CC1(C#N)C(=O)c2ccncc2C1=O`, the TGI in [1], in [2], in assay [3], in [4], in assay [5] and in [6] was more than 100 µM each time. The TGI in [7], in assay [8], in assay [9] and in assay [10] was more than 100 µM each time.
Consider `N#C[S-].[Ce+3].c1ccc(-c2ccccn2)nc1.c1ccc(-c2ccccn2)nc1.c1ccc(-c2ccccn2)nc1`, for which the GI50 was 20.6 µM in assay [3], 38.9 µM in assay [5], 13.5 µM in [8] and 30.5 µM in [10]. For the same compound, the TGI is 55.2 µM in [3], more than 100 µM in assay [5], more than 100 µM in assay [8] and more than 100 µM in assay [10].
In the case of `CCOC(=O)NC(=O)c1cn(CCN(CCO)C(=O)NCCCCCCNC(=O)N(CCO)CCn2cc(C(=O)NC(=O)OCC)c(=O)[nH]c2=O)c(=O)[nH]c1=O`, the TGI in assay [2], in [3], in assay [5], in assay [6], in [8] and in assay [9] was more than 100 µM each time. The TGI in assay [10] is more than 100 µM.
In the case of `Brc1ccc2nc(-c3cccs3)nc(N3CCN(c4ccccc4)CC3)c2c1`, the TGI in assay [1], in assay [2], in assay [3], in assay [4], in assay [5] and in assay [6] was more than 100 µM each time. In addition, the TGI in assay [7], in assay [8], in [9] and in assay [10] was more than 100 µM in each case.
`COc1nc2ccc(Cl)c(C(O)c3ccccc3)c2nc1OC` (stereo not drawn): the TGI in assay [1] is more than 100 µM; in assay [2] it was 37.1 µM; in assay [3], 96.3 µM; in [4], 80.7 µM; in [5], 82.7 µM; in assay [6], more than 100 µM. In addition, the TGI was 38.9 µM in assay [7], more than 100 µM in [8], 37.8 µM in assay [9] and 32.7 µM in assay [10].
For the compound `COC(Cc1cc(C(O)(c2ccc(C(C)(C)C)cc2)c2cc(CC(OC)(c3cc(C(OC)(c4ccc(C(C)(C)C)cc4)c4ccc(C(C)(C)C)cc4)c(C)cc3C)c3cc(C(OC)(c4ccc(C(C)(C)C)cc4)c4ccc(C(C)(C)C)cc4)c(C)cc3C)c(C)cc2C)c(C)cc1C)(c1cc(C(OC)(c2ccc(C(C)(C)C)cc2)c2ccc(C(C)(C)C)cc2)c(C)cc1C)c1cc(C(OC)(c2ccc(C(C)(C)C)cc2)c2ccc(C(C)(C)C)cc2)c(C)cc1C`, the TGI in assay [1], in [2], in assay [3], in assay [4], in [5] and in assay [6] was more than 75 µM in each case. In addition, the TGI in [7], in assay [8] and in [10] was more than 75 µM throughout.
As for `COc1c(O)cc2c(c1O)C(=O)C(Cc1ccc(O)cc1)CO2` (stereo not drawn), the TGI in [1], in [2], in [3], in assay [4], in assay [5] and in [6] was more than 100 µM each time. Moreover, the TGI in [7], in assay [8], in [9] and in assay [10] was more than 100 µM throughout.
For `CC1=C/C(=N\NS(=O)(=O)c2ccc([N+](=O)[O-])cc2)CC(C)(C)C1`, the TGI in [1], in assay [2], in assay [3], in assay [5], in [6] and in assay [8] was more than 100 µM in each case. The TGI in [9] and in assay [10] was more than 100 µM in each case.

Source of the values: PubChem BioAssay (NCI).
